{
  "source": "patent US20240043473A1",
  "about": "“NOOTROPIC PEPTIDES FOR TREATING LYSOSOMAL STORAGE DISEASES” (Phoenix Nest Inc., priority 2021, published 2024)",
  "origin": "cited, not measured here",
  "test_system": "BDNF and its signaling receptor TrkB in the hippocampus",
  "conditions": "in animals; cited from earlier work",
  "data": [
    {"substance": "Semax: synthetic analogue of ACTH(4-10), consisting of ACTH(4-7) and the C-terminal tripeptide Pro-Gly-Pro; MEHFPGP (SEQ ID NO: 1)", "values": [
      {"measurement": "levels and expression of BDNF and its signaling receptor TrkB in the hippocampus", "result": "rapidly elevates the levels and expression"},
      {"measurement": "serotonergic and dopaminergic brain systems", "result": "rapidly activates"}
    ]}
  ]
}
